Test results: ChEMBL document CHEMBL1147878, “Synthesis and in vitro antimicrobial activity of new 2-[p-substituted-benzyl]-5-[substituted-carbonylamino]benzoxazoles” (2007)
≈ marks a conversion by molar mass, not a printed value.

Key:
Type in all cases: functional
Staphylococcus aureus = assay: Antibacterial activity against Staphylococcus aureus ATCC 25923 after 24 hrs by serial dilution method; settings: ATCC 25923, 24 h
Bacillus subtilis = assay: Antibacterial activity against Bacillus subtilis ATCC 6633 after 24 hrs by serial dilution method; settings: ATCC 6633, 24 h
Pseudomonas aeruginosa = assay: Antibacterial activity against Pseudomonas aeruginosa ATCC 10145 after 24 hrs by serial dilution method; settings: ATCC 10145, 24 h
Escherichia coli = assay: Antibacterial activity against Escherichia coli ATCC 23556 after 24 hrs by serial dilution method; settings: ATCC 23556, 24 h
Candida albicans = assay: Antifungal activity against Candida albicans after 48 hrs by serial dilution method
Pichia kudriavzevii = assay: Antifungal activity against Candida krusei ATCC 6258 after 48 hrs by serial dilution method; settings: ATCC 6258, 48 h
Nakaseomyces glabratus = assay: Antifungal activity against Candida glabrata after 48 hrs by serial dilution method

| MIC (Staphylococcus aureus) | MIC (Bacillus subtilis) | MIC (Pseudomonas aeruginosa) | MIC (Escherichia coli) | MIC (Candida albicans) | MIC (Pichia kudriavzevii) | MIC (Nakaseomyces glabratus) | SMILES |
| --- | --- | --- | --- | --- | --- | --- | --- |
| 50 µg/mL (≈ 129 µM) | 50 µg/mL (≈ 129 µM) | 25 µg/mL (≈ 64.5 µM) | 50 µg/mL (≈ 129 µM) | 25 µg/mL (≈ 64.5 µM) | 25 µg/mL (≈ 64.5 µM) | 25 µg/mL (≈ 64.5 µM) | O=C(Cc1ccc([N+](=O)[O-])cc1)Nc1ccc2oc(Cc3ccccc3)nc2c1 |
| 25 µg/mL (≈ 59.7 µM) | 50 µg/mL (≈ 119 µM) | 50 µg/mL (≈ 119 µM) | 50 µg/mL (≈ 119 µM) | 50 µg/mL (≈ 119 µM) | 50 µg/mL (≈ 119 µM) | 50 µg/mL (≈ 119 µM) | CC(C)(C)c1ccc(C(=O)Nc2ccc3oc(Cc4ccc(Cl)cc4)nc3c2)cc1 |
| 50 µg/mL (≈ 144 µM) | 25 µg/mL (≈ 72.2 µM) | 25 µg/mL (≈ 72.2 µM) | 50 µg/mL (≈ 144 µM) | 12.5 µg/mL (≈ 36.1 µM) | 50 µg/mL (≈ 144 µM) | 25 µg/mL (≈ 72.2 µM) | O=C(Nc1ccc2oc(Cc3ccccc3)nc2c1)c1ccc(F)cc1 |
| 3.12 µg/mL (≈ 5.36 µM) | 50 µg/mL (≈ 86 µM) | 100 µg/mL (≈ 172 µM) | 1.56 µg/mL (≈ 2.68 µM) |  |  | 13 µg/mL (≈ 22.4 µM) | CN[C@@H]1[C@H](O[C@H]2[C@H](O[C@H]3[C@H](O)[C@@H](O)[C@H](N=C(N)N)[C@@H](O)[C@@H]3N=C(N)N)O[C@@H](C)[C@]2(O)C=O)O[C@@H](CO)[C@H](O)[C@H]1O (stereo in doubt) [STREPTOMYCIN] |
| 50 µg/mL (≈ 119 µM) | 50 µg/mL (≈ 119 µM) | 25 µg/mL (≈ 59.3 µM) | 50 µg/mL (≈ 119 µM) | 12.5 µg/mL (≈ 29.6 µM) | 25 µg/mL (≈ 59.3 µM) | 25 µg/mL (≈ 59.3 µM) | O=C(Cc1ccc([N+](=O)[O-])cc1)Nc1ccc2oc(Cc3ccc(Cl)cc3)nc2c1 |
| 100 µg/mL (≈ 245 µM) | 100 µg/mL (≈ 245 µM) | 100 µg/mL (≈ 245 µM) | 100 µg/mL (≈ 245 µM) | 50 µg/mL (≈ 122 µM) | 25 µg/mL (≈ 61.1 µM) | 50 µg/mL (≈ 122 µM) | O=C(CSc1ccccc1)Nc1ccc2oc(Cc3ccc(Cl)cc3)nc2c1 |
| 100 µg/mL (≈ 267 µM) | 50 µg/mL (≈ 134 µM) | 25 µg/mL (≈ 66.8 µM) | 50 µg/mL (≈ 134 µM) | 25 µg/mL (≈ 66.8 µM) | 25 µg/mL (≈ 66.8 µM) | 25 µg/mL (≈ 66.8 µM) | O=C(CSc1ccccc1)Nc1ccc2oc(Cc3ccccc3)nc2c1 |
| 100 µg/mL (≈ 256 µM) | 25 µg/mL (≈ 64 µM) | 25 µg/mL (≈ 64 µM) | 50 µg/mL (≈ 128 µM) | 12.5 µg/mL (≈ 32 µM) | 12.5 µg/mL (≈ 32 µM) | 12.5 µg/mL (≈ 32 µM) | Cc1ccc(CC(=O)Nc2ccc3oc(Cc4ccc(Cl)cc4)nc3c2)cc1 |
| 50 µg/mL (≈ 131 µM) | 25 µg/mL (≈ 65.7 µM) | 50 µg/mL (≈ 131 µM) | 25 µg/mL (≈ 65.7 µM) | 12.5 µg/mL (≈ 32.8 µM) | 12.5 µg/mL (≈ 32.8 µM) | 12.5 µg/mL (≈ 32.8 µM) | O=C(Nc1ccc2oc(Cc3ccc(Cl)cc3)nc2c1)c1ccc(F)cc1 |
| 50 µg/mL (≈ 123 µM) | 50 µg/mL (≈ 123 µM) | 25 µg/mL (≈ 61.4 µM) | 50 µg/mL (≈ 123 µM) | 25 µg/mL (≈ 61.4 µM) | 25 µg/mL (≈ 61.4 µM) | 25 µg/mL (≈ 61.4 µM) | O=C(Nc1ccc2oc(Cc3ccccc3)nc2c1)c1ccc(Br)cc1 |
| 100 µg/mL (≈ 245 µM) | 50 µg/mL (≈ 123 µM) | 25 µg/mL (≈ 61.3 µM) | 25 µg/mL (≈ 61.3 µM) | 50 µg/mL (≈ 123 µM) | 25 µg/mL (≈ 61.3 µM) | 25 µg/mL (≈ 61.3 µM) | O=C(Nc1ccc2oc(Cc3ccc(Cl)cc3)nc2c1)c1ccc([N+](=O)[O-])cc1 |
| 1.56 µg/mL (≈ 3.51 µM) | 1.56 µg/mL (≈ 3.51 µM) | 50 µg/mL (≈ 113 µM) | 3.12 µg/mL (≈ 7.02 µM) |  |  |  | CN(C)[C@@H]1C(O)=C(C(N)=O)C(=O)[C@@]2(O)C(O)=C3C(=O)c4c(O)cccc4[C@@](C)(O)[C@H]3C[C@@H]12 [TETRACYCLINE] |
|  |  |  |  | 3.12 µg/mL (≈ 8.63 µM) |  |  | Clc1cc(Cl)c(OCC#CI)cc1Cl [HALOPROGIN] |
| 12.5 µg/mL (≈ 31.7 µM) | 100 µg/mL (≈ 253 µM) | 25 µg/mL (≈ 63.3 µM) | 50 µg/mL (≈ 127 µM) | 50 µg/mL (≈ 127 µM) | 25 µg/mL (≈ 63.3 µM) | 50 µg/mL (≈ 127 µM) | O=C(Cc1ccc(F)cc1)Nc1ccc2oc(Cc3ccc(Cl)cc3)nc2c1 |
| 50 µg/mL (≈ 134 µM) | 25 µg/mL (≈ 67 µM) | 25 µg/mL (≈ 67 µM) | 100 µg/mL (≈ 268 µM) | 12.5 µg/mL (≈ 33.5 µM) | 12.5 µg/mL (≈ 33.5 µM) | 12.5 µg/mL (≈ 33.5 µM) | O=C(Nc1ccc2oc(Cc3ccccc3)nc2c1)c1ccc([N+](=O)[O-])cc1 |
| 50 µg/mL (≈ 123 µM) | 25 µg/mL (≈ 61.3 µM) | 25 µg/mL (≈ 61.3 µM) | 50 µg/mL (≈ 123 µM) | 12.5 µg/mL (≈ 30.7 µM) | 12.5 µg/mL (≈ 30.7 µM) | 12.5 µg/mL (≈ 30.7 µM) | O=C(Nc1ccc2oc(Cc3ccccc3)nc2c1)c1ccc(Cl)c([N+](=O)[O-])c1 |
| 50 µg/mL (≈ 133 µM) | 25 µg/mL (≈ 66.3 µM) | 25 µg/mL (≈ 66.3 µM) | 50 µg/mL (≈ 133 µM) | 25 µg/mL (≈ 66.3 µM) | 25 µg/mL (≈ 66.3 µM) | 25 µg/mL (≈ 66.3 µM) | O=C(Cc1ccccc1)Nc1ccc2oc(Cc3ccc(Cl)cc3)nc2c1 |
| 200 µg/mL (≈ 520 µM) | 50 µg/mL (≈ 130 µM) | 25 µg/mL (≈ 65 µM) | 25 µg/mL (≈ 65 µM) | 50 µg/mL (≈ 130 µM) | 25 µg/mL (≈ 65 µM) | 25 µg/mL (≈ 65 µM) | CC(C)(C)c1ccc(C(=O)Nc2ccc3oc(Cc4ccccc4)nc3c2)cc1 |
| 50 µg/mL (≈ 110 µM) | 25 µg/mL (≈ 54.9 µM) | 50 µg/mL (≈ 110 µM) | 50 µg/mL (≈ 110 µM) | 12.5 µg/mL (≈ 27.4 µM) | 25 µg/mL (≈ 54.9 µM) | 50 µg/mL (≈ 110 µM) | O=C(Cc1ccc(Br)cc1)Nc1ccc2oc(Cc3ccc(Cl)cc3)nc2c1 |
| 200 µg/mL (≈ 551 µM) | 50 µg/mL (≈ 138 µM) | 100 µg/mL (≈ 276 µM) | 100 µg/mL (≈ 276 µM) | 50 µg/mL (≈ 138 µM) | 25 µg/mL (≈ 68.9 µM) | 25 µg/mL (≈ 68.9 µM) | O=C(Nc1ccc2oc(Cc3ccc(Cl)cc3)nc2c1)c1ccccc1 |

| SMILES | MIC (Staphylococcus aureus) | MIC (Bacillus subtilis) | MIC (Pseudomonas aeruginosa) | MIC (Escherichia coli) | MIC (Candida albicans) | MIC (Pichia kudriavzevii) | MIC (Nakaseomyces glabratus) |
| --- | --- | --- | --- | --- | --- | --- | --- |
| O=C(O)c1cn(C2CC2)c2cc(N3CCNCC3)c(F)cc2c1=O [CIPROFLOXACIN] | 3.12 µg/mL (≈ 9.42 µM) | 1.56 µg/mL (≈ 4.71 µM) | 0.78 µg/mL (≈ 2.35 µM) |  |  |  |  |
